# Data reported in PubChem BioAssay AID1963976 (Molecular Pharmacology Branch, DTP, NCI, 2024).
# Test system: 435261-313-R-J1-PDC tumor spheroid viability
# Assay: Anticancer human tumor 435261-313-R-J1-PDC patient-derived colon adenocarcinoma cell line growth inhibition [PI3K]
# Conditions: spheroids with HUVEC and MSC; for IC50: curve of first compound; for viability, T/C: stronger effect = lower value
# Excerpt: Combinatorial screen of targeted agents with the PI3K inhibitors inavolisib, alpelisib, duvelisib, and copanlisib in multi-cell type tumor spheroids
# A high-throughput screen of multi-cell type tumor spheroids was designed to identify active combinations of targeted small molecules and PI3K pathway inhibitors. Complex spheroids include a stromal component modeled by human endothelial cells (HUVEC) and fibroblasts modeled by human mesenchymal stem cells (MSCs). The concentration ranges selected for each drug and investigational agent were based upon clinically achievable concentrations if the clinical Cmax of the agent was known.
# Compounds. The drugs and investigational agents: inavolisib (NSC800729), alpelisib (NSC765974), duvelisib (NSC772469), copanlisib (NSC816437), ipatasertib (NSC767898), afuresertib (NSC778305), talazoparib (NSC767125), sapanisertib (NSC764658), selumetinib (NSC741078), tovorafenib (DAY101, NSC766906), vemurafenib (NSC761431), ravoxertinib (NSC781343), sotorasib (NSC818433), MRTX1133 (NSC 836407), abemaciclib (NSC 768073), palbociclib (NSC758247), venetoclax (NSC 766270), SY5609 (NSC837396), enzalutamide (NSC755605), and darolutamide (NSC825331), were obtained from the National Cancer Institute (NCI) Developmental Therapeutics Program Chemical Repository. The FDA-approved anticancer drug set is available from the NCI Developmental Therapeutics Program. […] The stock solutions were prepared in dimethyl sulfoxide (DMSO, Sigma-Aldrich, St. Louis, MO, cat. D2650) at 800-fold the tested concentration and stored at -70 degrees C prior to their use. All drugs and investigational agents were tested over a range starting from a high concentration at or near the clinical Cmax and decreasing in half-log increments. If the clinical Cmax for an agent had not been determined, the highest concentration tested was 10 microM.
# Cell Culture. All cells were maintained in an incubator at 37 degrees C and 5% CO2 with 95% humidity. The PDC lines were cultured according to standard operating procedures established by the NCI PDMR (https://pdmr.cancer.gov/sops/default.htm). All PDCs were thawed and cultured in Matrigel-coated flasks prepared with a working solution of 1X Ham's F-12 nutrient mix, without supplementation (Invitrogen, Waltham, MA, cat. 11765054), 100 U/mL penicillin-streptomycin (Invitrogen, cat. 15140122), and 2.5% Matrigel (Corning Inc., Corning, NY, cat. 354248) for the first three passages. The 354836-022-R-J1-PDC, 475296-252-R-J1-PDC, and 997726-040-R-J2-PDC lines were cultured in 6A media, which includes advanced DMEM/F-12 (Thermo Fisher Scientific, cat. 12634028), 10 mM HEPES (Thermo Fisher Scientific, cat. 15630080), 1X GlutaMAX supplement (Thermo Fisher Scientific, cat. 35050061), 0.1 mg/mL primocin (InvivoGen, San Diego, CA, cat. ant-pm-2), 10% defined fetal bovine serum, heat inactivated (HyClone Laboratories Inc., Logan, UT, cat. SH30070.03HI), 50% L-WRN conditioned media (ATCC, cat. CRL-3276), 1.25 mM N-Acetyl-L-cysteine (Sigma-Aldrich, cat. A9165), 10 mM nicotinamide (Sigma-Aldrich, cat. N0636), 1X B-27 supplement (Thermo Fisher Scientific, cat. 17504044), 1X N-2 supplement (Thermo Fisher Scientific, cat. 17502048), and 10 microM Y-27632 dihydrochloride (Tocris Bioscience, Bristol, United Kingdom, cat. 1254). The 624824-186-R-J2-PDC line was cultured in 6C/Colon 1B media, which includes all 6A media components plus 50 ng/mL human EGF recombinant protein (Thermo Fisher Scientific, cat. PHG0311). […]
# 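Also: spheroids exposed to compounds for 7 days.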
smiles,measurement,setting,value
Cn1cnc2c(F)c(Nc3ccc(Br)cc3Cl)c(C(=O)NOCCO)cc21 + CC(Nc1ccc2c(c1)OCCn1cc(N3C(=O)OCC3C(F)F)nc1-2)C(N)=O,IC50,second compound 0.00316 µM,< 9.49 nM
same,IC50,second compound 0.01 µM,< 9.49 nM
same,IC50,second compound 0.0316 µM,< 9.49 nM
same,IC50,second compound 0.1 µM,< 9.49 nM
same,IC50,second compound 0.316 µM,< 9.49 nM
same,IC50,second compound 1 µM,< 9.49 nM
same,"viability, T/C","second compound 0.00316 µM, first compound 0.00949 µM",28.1%
same,"viability, T/C","second compound 0.00316 µM, first compound 0.03 µM",22.7%
same,"viability, T/C","second compound 0.00316 µM, first compound 0.0949 µM",14.8%
same,"viability, T/C","second compound 0.00316 µM, first compound 0.3 µM",15.4%
same,"viability, T/C","second compound 0.00316 µM, first compound 0.949 µM",16.1%
same,"viability, T/C","second compound 0.00316 µM, first compound 3 µM",11%
same,"viability, T/C","second compound 0.01 µM, first compound 0.00949 µM",25.1%
same,"viability, T/C","second compound 0.01 µM, first compound 0.03 µM",24.3%
same,"viability, T/C","second compound 0.01 µM, first compound 0.0949 µM",16.8%
same,"viability, T/C","second compound 0.01 µM, first compound 0.3 µM",16.2%
same,"viability, T/C","second compound 0.01 µM, first compound 0.949 µM",16.1%
same,"viability, T/C","second compound 0.01 µM, first compound 3 µM",11.5%
same,"viability, T/C","second compound 0.0316 µM, first compound 0.00949 µM",25.9%
same,"viability, T/C","second compound 0.0316 µM, first compound 0.03 µM",23.4%
same,"viability, T/C","second compound 0.0316 µM, first compound 0.0949 µM",15.4%
same,"viability, T/C","second compound 0.0316 µM, first compound 0.3 µM",14.8%
same,"viability, T/C","second compound 0.0316 µM, first compound 0.949 µM",12.2%
same,"viability, T/C","second compound 0.0316 µM, first compound 3 µM",6.61%
same,"viability, T/C","second compound 0.1 µM, first compound 0.00949 µM",21.4%
same,"viability, T/C","second compound 0.1 µM, first compound 0.03 µM",12.5%
same,"viability, T/C","second compound 0.1 µM, first compound 0.0949 µM",13.1%
same,"viability, T/C","second compound 0.1 µM, first compound 0.3 µM",11.7%
same,"viability, T/C","second compound 0.1 µM, first compound 0.949 µM",10.7%
same,"viability, T/C","second compound 0.1 µM, first compound 3 µM",6.55%
same,"viability, T/C","second compound 0.316 µM, first compound 0.00949 µM",12%
same,"viability, T/C","second compound 0.316 µM, first compound 0.03 µM",12.2%
same,"viability, T/C","second compound 0.316 µM, first compound 0.0949 µM",4.89%
same,"viability, T/C","second compound 0.316 µM, first compound 0.3 µM",8.13%
same,"viability, T/C","second compound 0.316 µM, first compound 0.949 µM",7.5%
same,"viability, T/C","second compound 0.316 µM, first compound 3 µM",2.69%
same,"viability, T/C","second compound 1 µM, first compound 0.00949 µM",11.9%
same,"viability, T/C","second compound 1 µM, first compound 0.03 µM",9.34%
same,"viability, T/C","second compound 1 µM, first compound 0.0949 µM",5.53%
same,"viability, T/C","second compound 1 µM, first compound 0.3 µM",6.3%
same,"viability, T/C","second compound 1 µM, first compound 0.949 µM",4.59%
same,"viability, T/C","second compound 1 µM, first compound 3 µM",0.73%
